Holding throughout (type): cell-based
For experiment [1], the target named is T1, human EDG3 (S1PR3) receptor (Homo sapiens, UniProt Q99500).
T1 construct: expressed in transfected cells; host or cells: CHO (cell pool CHO-A2-S1P3 Mix)
The experiment in a line: Method 2: Aequorin assay, cell pool CHO-A2-S1P3 Mix. Particulars: (2): determined with method 2. As to the method:
(§1) Agonistic activity was measured using two different methods, described below.
(§2) Genetically Engineered Cells
(§3) Cell clone CHO-A21-Edg1 #17 carries the transgenes human EDG1 (S1PR1) receptor (Accession number NP_001391.2), mitochondrially targeted Aequorin (active part corresponds to accession number 1SL8_A) and chimaeric Gaqi5=Gaq modified with the 5 C-terminal amino-acids replaced with those of the Gai protein (DCGLF). CHO-A2-S1P3 Mix is a cell pool ectopically expressing human EDG3 (S1PR3) receptor (Accession number NP_005217.2) mitochondrially targeted Aequorin (active part has a sequence similar to accession number AY601106.1) and GNA16 (Accession number NP_002059.3). Cell clone CHO-A21-EDG8 #12 carries the transgenes human EDG8 (S1PR5) receptor (Accession number NP_110387.1), mitochondrially expressed Aequorin (active part corresponds to accession number 1SL8_A) and chimaeric Gaqi5 (Gaq modified to present the 5 last amino-acids of the Gai protein “DCGLF”; see above). Cells are grown to mid-log phase in culture medium (HAM's F12, 10% FBS, 100 IU/mL penicillin, 100 μg/mL streptomycin, 250 μg/mL Zeocin, 400 μg/mL G418). 18 hours prior to frozen cells preparation, the medium is changed to remove the antibiotics.
(§4) 18 hours prior to the test, vials of frozen cells are quickly thawed in a 37° C. water bath, cells are recovered by centrifugation and resuspended in assay buffer (DMEM/HAM's F12 with HEPES, without phenol red+0.1% fatty acid-free BSA). Cells are gently agitated in suspension overnight at RT in presence of 5 μM of Coelenterazine h (Molecular Probes). On the day of the test, cells are diluted to their final working concentrations in assay buffer and agitated in suspension for 1 h at RT. Cells are then placed in the luminescence reader (Hamamatsu Functional Drug Screening System 6000, FDSS6000). During cells incubation, compounds are prepared in 100% DMSO, and subsequently diluted in assay buffer. Compounds are then dispensed in the assay plate (black, clear-bottom, 384-well plate). After binding of agonists to the human S1P receptor the intracellular calcium concentration increases and binding of calcium to the Aequorin/Coelenterazine complex leads to an oxidation reaction of coelenterazine, which results in the production of […], coelenteramide, CO2 and light (Dmax 469 nm). The luminescent response is dependent on the agonist concentration. For agonist testing, 30 μL of cell suspension are injected on 30 μL of test compound or reference agonist in the assay plate. The resulting emission of light is recorded for 90 seconds using the FDSS6000. Dose response curves with the reference compounds are performed before testing the compounds. S1P is the reference agonist and JTE-013 the reference antagonist for S1P2. […]
(§5) Luminescence data are integrated over the reading interval for agonist and antagonist modes. To standardize the emission of recorded light (determination of the “100% signal”) across plates and across different experiments, some of the wells contain 100 μM digitonin or a saturating concentration of ATP (20 μM). Plates also contain the reference agonist at a concentration equivalent to the EC80 obtained during the test validation and the EC100. Dose-response data from test compounds were analyzed with XLfit (IDBS) software using nonlinear regression applied to a sigmoidal dose-response model and the following equation: • XL Fit fit Model 203: 4 Parameter Logistic Model • A: Bottom • B: TOP • C: LogEC50 • D: Hill fit=(A+((B−A)/(1+(((10^C)/x)^D)))) inv=((10^C)/((((B−A)/(y−A))−1)^(1/D))) res=(y−fit)

Experiment [2] deals with T2, human EDG8 (S1PR5) receptor (Homo sapiens, UniProt Q9H228).
T2 construct: expressed in transfected cells; host or cells: CHO (clone CHO-A21-EDG8 #12)
Description: Method 2: Aequorin assay, cell clone CHO-A21-EDG8 #12. Particulars: agonist potency, determined with method 2 (symbols E-G); read-out: S1P5 EC50 range. As to the method:
as §1, §2, §3, §4, §5

Experiment [3] concerns the target T3, human EDG1 (S1PR1) receptor (Homo sapiens, UniProt P21453).
T3 construct: expressed in transfected cells; host or cells: CHO (clone CHO-A21-Edg1 #17)
Description: Method 2: Aequorin assay, cell clone CHO-A21-Edg1 #17. Particulars: (2): determined with method 2; read-out: S1P1 EC50. As to the method:
as §1, §2, §3, §4, §5

pEC50: −log10 of the molar value.

T3 sequence (P21453 whole entry): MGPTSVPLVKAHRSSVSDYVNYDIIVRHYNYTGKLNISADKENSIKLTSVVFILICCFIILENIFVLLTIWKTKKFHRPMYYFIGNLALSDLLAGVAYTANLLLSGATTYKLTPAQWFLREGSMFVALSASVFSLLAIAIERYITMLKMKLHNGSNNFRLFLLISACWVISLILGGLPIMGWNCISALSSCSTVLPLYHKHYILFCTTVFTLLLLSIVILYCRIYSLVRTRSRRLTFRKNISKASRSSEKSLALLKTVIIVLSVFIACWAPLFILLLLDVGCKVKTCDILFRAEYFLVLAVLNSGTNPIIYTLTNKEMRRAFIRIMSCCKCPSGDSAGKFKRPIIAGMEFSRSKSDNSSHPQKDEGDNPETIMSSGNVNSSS
T2 sequence (Q9H228 whole entry): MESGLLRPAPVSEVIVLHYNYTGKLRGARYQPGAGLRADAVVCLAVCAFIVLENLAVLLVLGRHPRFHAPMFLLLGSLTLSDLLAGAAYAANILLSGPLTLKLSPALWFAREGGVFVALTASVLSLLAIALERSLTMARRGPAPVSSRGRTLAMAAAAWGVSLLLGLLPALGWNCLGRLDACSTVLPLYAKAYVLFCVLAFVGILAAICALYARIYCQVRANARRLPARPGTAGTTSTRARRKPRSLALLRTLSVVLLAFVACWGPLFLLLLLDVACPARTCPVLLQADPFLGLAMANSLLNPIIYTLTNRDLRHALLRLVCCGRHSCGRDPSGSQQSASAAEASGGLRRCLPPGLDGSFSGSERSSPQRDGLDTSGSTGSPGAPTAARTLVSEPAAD
T1 sequence (Q99500 whole entry): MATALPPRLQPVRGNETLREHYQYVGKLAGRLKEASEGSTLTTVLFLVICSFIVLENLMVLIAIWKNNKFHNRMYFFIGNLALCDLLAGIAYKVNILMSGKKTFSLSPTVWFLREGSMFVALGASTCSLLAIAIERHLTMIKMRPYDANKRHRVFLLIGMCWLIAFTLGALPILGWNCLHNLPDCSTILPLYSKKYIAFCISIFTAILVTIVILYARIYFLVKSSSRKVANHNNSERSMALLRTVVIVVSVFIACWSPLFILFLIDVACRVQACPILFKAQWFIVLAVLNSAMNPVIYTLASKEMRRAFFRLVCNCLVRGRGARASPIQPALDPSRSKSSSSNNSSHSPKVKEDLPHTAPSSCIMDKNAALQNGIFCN

Turning to `CC(CN1CCc2nc(-c3ccc(OCc4ccccc4)cc3)ncc2C1)C(=O)O` (stereo not drawn) [Compound 6, 3-(2-(4-(benzyloxy)phenyl)-7,8-dihydropyrido[4,3-d]pyrimidin-6(5H)-yl)-2-methylpropanoic acid], the pEC50 is below 6.00 in experiment [1], 6.00 to 7.00 in experiment [2] and below 6.00 in experiment [3].

Regarding `CC(CN1CCc2nc(-c3ccc(OCc4c(Cl)cccc4Cl)cc3)ncc2C1)C(=O)O` (stereo not drawn) [Compound 7, 3-(2-(4-(2,6-dichlorobenzyloxy)phenyl)-7,8-dihydropyrido[4,3-d]pyrimidin-6(5H)-yl)-2-methylpropanoic acid], the pEC50 in experiment [1] was below 6.00; in experiment [2], 6.00 to 7.00; in experiment [3], below 6.00.

Consider `CC(CN1CCc2nc(-c3ccc(OCc4cc(F)cc(F)c4)cc3)ncc2C1)C(=O)O` (stereo not drawn) [Compound 9, 3-(2-(4-((3,5-difluorobenzyl)oxy)phenyl)-7,8-dihydropyrido[4,3-d]pyrimidin-6(5H)-yl)-2-methylpropanoic acid], for which the negative-log EC50 (pEC50) in experiment [1] is below 6.00; in experiment [2] it was 6.00 to 7.00; in experiment [3], below 6.00.

Consider `O=C(O)CCN1CCc2nc(-c3ccc(OCc4cccc(F)c4F)cc3)ncc2C1` [Compound 69, 3-(2-(4-((2,3-difluorobenzyl)oxy)phenyl)-7,8-dihydropyrido[4,3-d]pyrimidin-6(5H)-yl)propanoic acid], for which the pEC50 in experiment [1] is below 6.00; in experiment [2], 5.00 to 6.00; in experiment [3], below 6.00.

For `O=C(O)CCN1CCc2nc(-c3ccc(OCc4c(Cl)cccc4Cl)cc3)ncc2C1` [Compound 70, 3-(2-(4-((2,6-dichlorobenzyl)oxy)phenyl)-7,8-dihydropyrido[4,3-d]pyrimidin-6(5H)-yl)propanoic acid], the pEC50 is below 6.00 in experiment [1], 6.00 to 7.00 in experiment [2] and below 6.00 in experiment [3].

Take `CC(CN1CCc2nc(-c3ccc(OCc4ccccc4)cc3)ccc2C1)C(=O)O` (stereo not drawn) [Compound 101, 3-(2-(4-(benzyloxy)phenyl)-7,8-dihydro-1,6-naphthyridin-6(5H)-yl)-2-methylpropanoic acid]: the pEC50 is below 6.00 in experiment [1], 6.00 to 7.00 in experiment [2] and below 6.00 in experiment [3].

With `CC(CC(=O)O)N1CCc2nc(-c3ccc(OCc4ccccc4)cc3)ccc2C1` (stereo not drawn) [Compound 113, 3-(2-(4-(benzyloxy)phenyl)-7,8-dihydro-1,6-naphthyridin-6(5H)-yl)butanoic acid], the results for the pEC50 in experiment [1], in experiment [2] and in experiment [3] were below 6.00, 5.00 to 6.00 and below 6.00, respectively.

`O=C(O)CCN1CCc2nc(-c3ccc(OCc4ccccc4)cc3)ccc2C1` [Compound 129, 3-(2-(4-(benzyloxy)phenyl)-7,8-dihydro-1,6-naphthyridin-6(5H)-yl)propanoic acid]: the pEC50 was below 6.00 in experiment [1], 6.00 to 7.00 in experiment [2] and below 6.00 in experiment [3].

For `O=C(O)CCN1CCc2nc(-c3ccc(OCc4c(Cl)cccc4Cl)cc3)ccc2C1` [Compound 130, 3-(2-(4-((2,6-dichlorobenzyl)oxy)phenyl)-7,8-dihydro-1,6-naphthyridin-6(5H)-yl)propanoic acid], the pEC50 is below 6.00 in experiment [1], 6.00 to 7.00 in experiment [2] and below 6.00 in experiment [3].

For the molecule `O=C(O)CCN1CCc2nc(-c3ccc(OCc4cccc(F)c4F)cc3)ccc2C1` [Compound 131, 3-(2-(4-((2,3-difluorobenzyl)oxy)phenyl)-7,8-dihydro-1,6-naphthyridin-6(5H)-yl)propanoic acid], the values for the pEC50 in experiment [1], in experiment [2] and in experiment [3] were below 6.00, above 7.00 and below 6.00, respectively.

Turning to `O=C(O)CCN1CCc2nc(-c3ccc(OCc4ccccc4F)cc3)ccc2C1` [Compound 132, 3-(2-(4-((2-fluorobenzyl)oxy)phenyl)-7,8-dihydro-1,6-naphthyridin-6(5H)-yl)propanoic acid], the results for the pEC50 in experiment [1], in experiment [2] and in experiment [3] were below 6.00, above 7.00 and below 6.00, respectively.

Consider `O=C(O)CCN1CCc2nc(-c3ccc(OCc4ccccc4)cc3F)ccc2C1` [Compound 134, 3-(2-(4-(benzyloxy)-2-fluorophenyl)-7,8-dihydro-1,6-naphthyridin-6(5H)-yl)propanoic acid], for which the results for the pEC50 in experiment [1], in experiment [2] and in experiment [3] were below 6.00, above 7.00 and below 6.00, respectively.

As for `Cc1cc(OCc2ccccc2)ccc1-c1ccc2c(n1)CCN(CCC(=O)O)C2` [Compound 135, 3-(2-(4-(benzyloxy)-2-methylphenyl)-7,8-dihydro-1,6-naphthyridin-6(5H)-yl)propanoic acid], the pEC50 in experiment [1] is below 6.00; in experiment [2], 5.00 to 6.00; in experiment [3], below 6.00.

`O=C(O)CCN1CCc2nc(-c3ccc(OCc4ccccc4)cc3C(F)(F)F)ccc2C1` [Compound 136, 3-(2-(4-(benzyloxy)-2-trifluoromethylphenyl)-7,8-dihydro-1,6-naphthyridin-6(5H)-yl)propanoic acid]: the pEC50 in experiment [1] is below 6.00; in experiment [2] it was 5.00 to 6.00; in experiment [3], below 6.00.

For `O=C(O)CCN1CCc2nc(-c3ccc(OCc4ccccc4)c(F)c3)ccc2C1` [Compound 137, 3-(2-(4-(benzyloxy)-3-fluorophenyl)-7,8-dihydro-1,6-naphthyridin-6(5H)-yl)propanoic acid], the pEC50 in experiment [1] is below 6.00; in experiment [2], 6.00 to 7.00; in experiment [3], below 6.00.

With `COc1cc(OCc2ccccc2)ccc1-c1ccc2c(n1)CCN(CCC(=O)O)C2` [Compound 138, 3-(2-(4-(benzyloxy)-2-methoxyphenyl)-7,8-dihydro-1,6-naphthyridin-6(5H)-yl)propanoic acid], the pEC50 is below 6.00 in experiment [1], 5.00 to 6.00 in experiment [2] and below 6.00 in experiment [3].

With `Cc1cc(-c2ccc3c(n2)CCN(CCC(=O)O)C3)ccc1OCc1ccccc1` [Compound 139, 3-(2-(4-(benzyloxy)-3-methylphenyl)-7,8-dihydro-1,6-naphthyridin-6(5H)-yl)propanoic acid], the pEC50 in experiment [1] was below 6.00; in experiment [2] it was 6.00 to 7.00; in experiment [3] it was below 6.00.

As to `O=C(O)CCN1CCc2nc(-c3ccc(OCc4ccc(F)cc4)c(Cl)c3)ccc2C1` [Compound 140, 3-(2-(3-chloro-4-((4-fluorobenzyl)oxy)phenyl)-7,8-dihydro-1,6-naphthyridin-6(5H)-yl)propanoic acid], the results for the pEC50 in experiment [1], in experiment [2] and in experiment [3] were below 6.00, 6.00 to 7.00 and below 6.00, respectively.

For `O=C(O)CCN1CCc2nc(-c3ccc(OCc4ccccc4F)c(Cl)c3)ccc2C1` [Compound 141], the pEC50 in experiment [1] is below 6.00; in experiment [2] it was 6.00 to 7.00; in experiment [3] it was below 6.00.

With `COc1cc(-c2ccc3c(n2)CCN(CCC(=O)O)C3)ccc1OCc1ccccc1` [Compound 142, 3-(2-(4-(benzyloxy)-3-methoxyphenyl)-7,8-dihydro-1,6-naphthyridin-6(5H)-yl)propanoic acid], the pEC50 is below 6.00 in experiment [1], 5.00 to 6.00 in experiment [2] and below 6.00 in experiment [3].

On to `O=C(O)CCN1CCc2nc(-c3ccc(OCc4ccccc4)c(C(F)(F)F)c3)ccc2C1` [Compound 143, 3-(2-(4-(benzyloxy)-3-trifluoromethylphenyl)-7,8-dihydro-1,6-naphthyridin-6(5H)-yl)propanoic acid], for which the pEC50 is below 6.00 in experiment [1], 6.00 to 7.00 in experiment [2] and below 6.00 in experiment [3].

As usually defined, the pEC50 is −log10 of the EC50, conventionally taken in molar units.

For the origin of these results see patent US10556907B2 (AbbVie Inc., priority 2015, dated 2020).
